Assay results reported in patent publication EP2524912A1, “Amine derivatives” (Bionomics Limited, priority 2011, dated 2012).

Target: human Kv1.3 (Homo sapiens, UniProt P22001)
Experiment: Kv1.3 patch-clamp electrophysiology (planar electrode, whole-cell, steady state current)
Assay type: cell-based
Conditions: CHO/Kv1.3 stable cell line; steady state current amplitude at end of 500 ms depolarising pulse to +40 mV; values given as ranges; read-out: IC50 (Kv1.3 ephys steady state)
Method: The inhibition data shown for the compounds of the list below was calculated using the steady state current amplitude at the end of the depolarising pulse in patch clamp evaluations (as described in the Pharmacology Example 2).
The human Kv1.3 construct (Kv1.3/pENTR, clone IOH61428) was purchased from Invitrogen and subcloned into pcDNA 3.2-DEST (Invitrogen). CHO-K1 cells obtained from ATCC (cat #CCL-61) were transfected with the Kv1.3/pcDNA3.2DEST construct and a stable cell line was developed through two rounds of limiting dilution under G418 selection. Positive (Kv1.3 expressing) clones were identified using electrophysiology.
CHO/Kv1.x stable cell lines were grown in a humidified atmosphere at 37 °C, 5% CO2 in T-75 flasks containing F12 Kaighn's medium supplemented with 10% fetal calf serum, 2 mM L-glutamine, 100 units/ml penicillin, 100 µg/ml streptomycin and 500 µg/ml G418 (to maintain selection). CHO/Kv1.1 and CHO/Kv1.5 cells used for patching were transferred to 33 °C for 48 hours prior to use.
Kv1.x currents were measured using a planar electrode version (Nanion Technologies GMBH) of the patch-clamp technique. Whole-cell Kv1.x current transients were evoked by 500 ms depolarising voltage pulses to +40 mV from a holding potential of -80 mV applied at 10 s intervals for Kv1.1 and Kv1.5 and at 30 s intervals for Kv1.3 to allow adequate time for recovery from inactivation. Cells were continuously bathed in a buffered saline solution containing (mM): 160 NaCl, 4.5 KCI, 2 CaCl2, 1 MgCl2, 5 glucose, 10 HEPES, pH 7.4, 290-310 mOsm.Kg^-1. The internal (pipette) solution contained (mM): 10 NaCl, 70 KF, 75 KCI, 2 MgCl2, 10 HEPES, 10 EGTA, pH 7.2, 290-310 mOsm.Kg^-1. Series resistance compensation (60-80%) was applied when the peak current amplitude exceeded 2 nA.
Compounds were initially dissolved in DMSO to 10 mM. After further dilution in DMSO, compounds were finally diluted in bath solution 1/200 (to give a final DMSO concentration of 0.5%) and applied directly to the recording chamber. Compounds were added at increasing concentrations allowing ample time for steady state block to be achieved between each concentration. Each compound was tested at 5-6 different concentrations on 2-3 cells. IC50 values can be determined by fitting the average normalised reduction of either the current integral or the steady state current amplitude at the end of the depolarising pulse obtained at each compound concentration to the Hill equation. The IC50 data reported herein is based on the steady state calculation.

human Kv1.3, sequence (P22001 whole entry): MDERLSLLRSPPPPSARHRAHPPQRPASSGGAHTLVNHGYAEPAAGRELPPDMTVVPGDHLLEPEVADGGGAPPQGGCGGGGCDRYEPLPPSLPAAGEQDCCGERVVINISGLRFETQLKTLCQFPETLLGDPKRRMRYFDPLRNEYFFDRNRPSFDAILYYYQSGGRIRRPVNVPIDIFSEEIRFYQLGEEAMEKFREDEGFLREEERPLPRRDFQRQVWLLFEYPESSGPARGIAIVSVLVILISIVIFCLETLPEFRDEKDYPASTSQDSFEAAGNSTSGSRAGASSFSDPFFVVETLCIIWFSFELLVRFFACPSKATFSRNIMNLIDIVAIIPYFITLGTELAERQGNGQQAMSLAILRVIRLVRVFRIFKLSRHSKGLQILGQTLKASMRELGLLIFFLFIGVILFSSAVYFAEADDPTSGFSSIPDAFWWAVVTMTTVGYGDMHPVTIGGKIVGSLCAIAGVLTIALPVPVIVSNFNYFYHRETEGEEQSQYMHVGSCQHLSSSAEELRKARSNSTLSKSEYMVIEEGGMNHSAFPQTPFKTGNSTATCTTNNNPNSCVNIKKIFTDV

Row | Structure (SMILES) | IC50
1 | CC(c1ccc2c(c1)CCC2)N(Cc1ccccn1)C(=O)CCc1ccc(F)cc1 (stereo not drawn) [Example 67, N-[1-(2,3-dihydro-1H-inden-5-yl)ethyl]-3-(4-fluorophenyl)-N-(pyridin-2-ylmethyl)propanamide] | 0.2 to 1 µM
2 | CC(c1ccc2c(c1)[S+]([O-])C(C)(C)O2)N(Cc1ccccn1)C(=O)CCc1cccc(C(F)(F)F)c1 (stereo not drawn) [Example 63, N-[1-(2,2-dimethyl-3-oxido-1,3-benzoxathiol-5-yl)ethyl]-N-(pyridin-2-ylmethyl)-3-[3-(trifluoromethyl)phenyl]propanamide] | > 1 µM
3 | Cc1cnc(C)c(OCCN(C(=O)CC(C)c2ccc(F)cc2)C(C)c2ccc3c(c2)CCC3)n1 (stereo not drawn) [Example 41, N-[1-(2,3-dihydro-1H-inden-5-yl)ethyl]-3-(4-fluorophenyl)-N-[2-(3,6-dimethylpyrazin-2-yloxy)ethyl]butanamide] | 0.05 to 0.2 µM
4 | O=C(CCc1ccc(F)cc1)N(Cc1ccccn1)C(c1ccc(F)cc1)C1CCCC1 (stereo not drawn) [Example 21, N-[cyclopentyl(4-fluorophenyl)methyl]-3-(4-fluorophenyl)-N-(pyridin-2-ylmethyl)propanamide] | 0.05 to 0.2 µM
5 | Cc1cccc(OCCN(C(=O)CC(C)c2ccc(F)cc2)C(C)c2ccc3c(c2)CCC3)n1 (stereo not drawn) [Example 52, N-[1-(2,3-dihydro-1H-inden-5-yl)ethyl]-3-(4-fluorophenyl)-N-[2-(6-methylpyridin-2-yloxv)ethyl]butanamide] | 0.2 to 1 µM
6 | CC(c1ccc2c(c1)SC(C)(C)O2)N(Cc1ccccn1)C(=O)CCc1ccc(F)cc1 (stereo not drawn) [Example 54, N-[1-(2,2-dimethyl-1,3-benzoxathiol-5-yl)ethyl]-3-(4-fluorophenyl)-N-(pyridin-2-ylmethyl)propanamide] | 0.2 to 1 µM
7 | CC(c1ccc2c(c1)CCC2)N(CCOc1cccc(Cl)n1)C(=O)CCc1ccc(F)cc1 (stereo not drawn) [Example 45, N-[1-(2,3-dihydro-1H-inden-5-yl)ethyl]-3-(4-fluorophenyl)-N-[2-(6-chloropyridin-2-yloxy)ethyl]propanamide] | 0.2 to 1 µM
8 | CC(c1ccc2c(c1)SC(C)(C)O2)N(Cc1ccccn1)C(=O)CCc1cccc(C(F)(F)F)c1 (stereo not drawn) [Example 62, N-[1-(2,2-dimethyl-1,3-benzoxathiol-5-yl)ethyl]-N-(pyridin-2-ylmethyl)-3-[3-(trifluoromethyl)phenyl]propanamide] | 0.2 to 1 µM
9 | CC(CC(=O)N(Cc1ccccn1)C(C)c1nncn1C)c1ccc(F)cc1 (stereo not drawn) [Example 78, 3-(4-fluorophenyl)-N-[1-(4-methyl-4H-1,2,4-triazol-3-yl)ethyl]-N-(pyridin-2-ylmethyl)butanamide] | 0.2 to 1 µM
10 | CC(c1ccc2c(c1)CCC2)N(CCOc1ccccn1)C(=O)CCc1ccc(F)cc1 (stereo not drawn) [Example 47, N-[1-(2,3-dihydro-1H-inden-5-yl)ethyl]-3-(4-fluorophenyl)-N-[2-(pyridin-2-yloxy)ethyl]propanamide] | 0.05 to 0.2 µM
11 | CC(c1ccc2c(c1)CCC2)N(CCOc1ccccn1)C(=O)C1(c2ccc(Cl)cc2)CCC1 (stereo not drawn) [Example 50, 1-(4-chlorophenyl)-N-[1-(2,3-dihydro-1H-inden-5-yl)ethyl]-N-[2-(pyridin-2-yloxy)ethyl]cyclobutanecarboxamide] | 0.2 to 1 µM
12 | Cc1cccc(OCCN(C(=O)CCc2ccc(F)cc2)C(C)c2ccc3c(c2)CCC3)n1 (stereo not drawn) [Example 53, N-[1-(2,3-dihydro-1H-inden-5-yl)ethyl]-3-(4-fluorophenyl)-N-[2-(6-methylpyridin-2-yloxy)ethyl]propanamide] | 0.05 to 0.2 µM
13 | CC(c1ccc2c(c1)CCC2)N(CCOc1ccccn1)C(=O)CCCc1ccccc1 (stereo not drawn) [Example 51, N-[1-(2,3-dihydro-1H-inden-5-yl)ethyl]-4-phenyl-N-[2-(pyridin-2-yloxy)ethyl]butanamide] | 0.05 to 0.2 µM
14 | CC(CC(=O)N(CCOc1ccccn1)C(C)c1ccc2c(c1)CCC2)c1ccc(F)cc1 (stereo not drawn) [Example 46, N-[1-(2,3-dihydro-1H-inden-5-yl)ethyl]-3-(4-fluorophenyl)-N-[2-(pyridin-2-yloxy)ethyl]butanamide] | 0.05 to 0.2 µM
15 | CC(CC(=O)N(CCOc1cccc(Cl)n1)C(C)c1ccc2c(c1)CCC2)c1ccc(F)cc1 (stereo not drawn) [Example 44, N-[1-(2,3-dihydro-1H-inden-5-yl)ethyl]-3-(4-fluorophenyl)-N-[2-(6-chloropyridin-2-yloxy)ethyl]butanamide] | 0.2 to 1 µM
16 | O=C(CS(=O)(=O)c1ccc(F)cc1)N(Cc1ccccn1)C(c1ccccc1)C1CC1 (stereo not drawn) [Example 15, N-[cyclopropyl(phenyl)methyl]-2-[(4-fluorophenyl)sulfonyl]-N-(pyridin-2-ylmethyl)acetamide] | 0.2 to 1 µM
17 | CC1(C)Oc2ccc(C(C3CC3)N(Cc3ccccn3)C(=O)COc3ccc(F)cc3)cc2S1(=O)=O (stereo not drawn) [Example 77, N-[cyclopropyl(2,2-dimethyl-3,3-dioxido-1,3-benzoxathiol-5-yl)methyl]-2-(4-fluorophenoxy)-N-(pyridin-2-ylmethyl)acetamide] | 0.05 to 0.2 µM

Continued, values first:

Row | IC50 | Structure (SMILES)
18 | > 1 µM | COCc1ccccc1C(C)N(Cc1ccccn1)C(=O)CS(=O)(=O)c1ccc(F)cc1 (stereo not drawn) [Example 65, 2-[(4-fluorophenyl)sulfonyl]-N-{1-[2-(methoxymethyl)phenyl]ethyl}-N-(pyridin-2-ylmethyl)acetamide]
19 | 0.2 to 1 µM | CC(c1ccccc1)N(Cc1ccccn1)C(=O)CCc1ccc(F)cc1 (stereo not drawn) [Example 42, 3-(4-fluorophenyl)-N-(1-phenylethyl)-N-(pyridin-2-ylmethyl)propanamide]
20 | 0.2 to 1 µM | CCC(CC)C(c1ccccc1)N(Cc1ccccn1)C(=O)CCc1ccc(F)cc1 (stereo not drawn) [Example 22, N-(2-ethyl-1-phenylbutyl)-3-(4-fluorophenyl)-N-(pyridin-2-ylmethyl)propanamide]
21 | 0.2 to 1 µM | CC(CCN(C(=O)c1cccnc1)C(C)c1ccc2c(c1)CCC2)c1ccc(F)cc1 (stereo not drawn) [Example 68, N-[1-(2,3-dihydro-1H-inden-5-yl)ethyl]-N-[3-(4-fluorophenyl)butyl]pyridine-3-carboxamide]
22 | 0.2 to 1 µM | COCc1ccccc1C(C)N(Cc1ccccn1)C(=O)CCc1ccc(F)cc1 (stereo not drawn) [Example 57, 3-(4-fluorophenyl)-N-{1-[2-(methoxymethyl)phenyl]ethyl}-N-(pyridin-2-ylmethyl)propanamide]
23 | 0.05 to 0.2 µM | O=C(CCc1ccc(F)cc1)N(Cc1ccccn1)C(c1ccccc1)C1CCCC1 (stereo not drawn) [Example 23, N-[cyclopentyl(phenyl)methyl]-3-(4-fluorophenyl)-N-(pyridin-2-ylmethyl)propanamide]
24 | 0.05 to 0.2 µM | CC(CC(=O)N(Cc1ccccn1)C(c1ccc(Cl)cc1)C1CC1)S(=O)(=O)c1ccc(F)cc1 (stereo not drawn) [Example 76, N-[(4-chlorophenyl)(cyclopropyl)methyl]-3-[(4-fluorophenyl)sulfonyl]-N-(pyridin-2-ylmethyl)butanamide]
25 | 0.05 to 0.2 µM | COCc1ccccc1C(C)N(Cc1ccccn1)C(=O)C1(S(=O)(=O)c2ccc(F)cc2)CC1 (stereo not drawn) [Example 66, 1-[(4-fluorophenyl)sulfonyl]-N-{1-[2-(methoxymethyl)phenyl]ethyl}-N-(pyridin-2-ylmethyl)cyclopropanecarboxamide]
26 | 0.05 to 0.2 µM | CC(CCN(C(=O)CN1CCC(F)CC1)C(C)c1ccc2c(c1)CCC2)c1ccc(F)cc1 (stereo not drawn) [Example 70, N-[1-(2,3-dihydro-1H-inden-5-yl)ethyl]-N-[3-(4-fluorophenyl)butyl]-2-(4-fluoropiperidin-1-yl)acetamide]
27 | 0.05 to 0.2 µM | O=C(CCc1ccc(F)cc1)N(Cc1ccccn1)C(c1ccc(Cl)cc1)C1CC1 (stereo not drawn) [Example 9, N-[cyclopropyl(4-chlorophenyl)methyl]-3-(4-fluorophenyl)-N-(pyridin-2-ylmethyl)propanamide]
